{
  "source": "patent US20230285323A1",
  "about": "“ESKETAMINE-SUSPENSION-TTS” (LTS LOHMANN THERAPIE-SYSTEME AG, priority 2020, published 2023)",
  "test": "Saturation concentration (solubility) of ketamine in silicone pressure sensitive adhesive",
  "data": [
    {"smiles": "CNC1(c2ccccc2Cl)CCCCC1=O", "note": "(racemic) [ketamine, (RS)-(±)-2-(2-chlorophenyl)-2-(methylamino)cyclohexan-1-one]", "values": [
      {"measurement": "Solubility of ketamine in the silicone pressure sensitive adhesive", "result": "not more than 1 wt.-%"}
    ]}
  ]
}
